Test results: patent publication US20210145802A1, “THERAPY FOR OPHTHALMOLOGICAL CONDITIONS” (WREN THERAPEUTICS LIMITED, priority 2018, published 2021)

How the values were obtained:
Aβ42 fibrils = biological target: T1, Aβ42 fibrils (Homo sapiens, UniProt P05067); assay: Dot-blot assay with fibril-specific OC antibody; format: biochemical; conditions: 2 μM Aβ42; 5-fold excess of compound; eight time points
T1 construct: […]; made in house; host or cells: E. coli BL21 Gold (DE3)
Description: Blotting was performed using Aβ42 fibril-specific antibody (OC, Millipore). During the time course of the aggregation of a 2 μM Aβ42 in the absence and in the presence of 5-fold excess of Netoglitazone, 4 μL Aβ42 aliquots were removed from the mixture at different time points for blotting with OC. Aβ42 aliquots were spotted onto a nitrocellulose membrane (0.2 μm, Whatman) and then the membranes were dried and then blocked with Blocking One (Nacalai tesque) before immuno-detection. OC was used according to the manufacturer's instructions. Alexa Fluor® 488-conjugated secondary antibodies (Life technologies) were subsequently added and fluorescence detection was performed using Typhoon Trio Imager (GE Healthcare).

Aβ42 [1] = biological target: T2, Aβ42 (Homo sapiens, UniProt P05067); assay: Chemical kinetics analysis of Aβ42 aggregation profiles (rate constants); format: biochemical; conditions: 2 μM Aβ42; increasing compound concentrations
T2 construct: […]; made in house; host or cells: E. coli BL21 Gold (DE3)
T2 sequence (P05067 671-713): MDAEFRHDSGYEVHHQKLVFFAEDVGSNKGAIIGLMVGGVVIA
Description: The time evolution of the total fibril mass concentration is described as a function only of the initial conditions and the rate constants of the system by the integrated rate law given by Eq. (54) in Cohen et al., J Chem Phys 135, 065106, 2011.
These are related to the rate of formation of new aggregates through primary pathways λ=√{square root over (2k+knm(0)^n^c)} and through secondary pathways κ=√{square root over (2k+k2m(0)^n^2^+1)}, where the initial concentration of soluble monomers is denoted by m(0), nc and n2 describe the dependencies of the primary and secondary pathways on the monomer concentration (nc=n2=2 for Aβ42), and kn, k+ and k2 are the rate constants of the primary nucleation, elongation and secondary nucleation, respectively (Cohen et al., Proc Natl Acad Sci USA, 110(24), 9758-63, 2013). […]
A quantitative analysis was carried out on the effects of the molecules by matching the experimental aggregation profiles to kinetic curves calculated using the rate laws derived from a master equation that relates the time evolution of fibril formation to the rate constants of the different microscopic events. In this approach, the aggregation profiles in the presence of an inhibitor are described by introducing into the rate laws suitable perturbations to each of the microscopic rate constants evaluated in the absence of the inhibitor. […]

Aβ42 [2] = biological target: T2, Aβ42; assay: ThT kinetic assay of Aβ42 fibril formation (unseeded); format: biochemical; conditions: 2 μM Aβ42; range of Netoglitazone concentrations; ThT fluorescence
Description: The recombinant Aβ(M1-42) peptide ([…]-SNKGAIIGLMVGGVVIA [SEQ ID NO: 1]), here called Aβ42, was expressed in the E. coli BL21 Gold (DE3) strain (Stratagene, CA, U.S.A.) and purified as described previously with slight modifications. Briefly, the purification procedure involved sonication of E. coli cells, dissolution of inclusion bodies in 8 M urea, and ion exchange in batch mode on diethylaminoethyl cellulose resin and lyophylization. The lyophilized fractions were further purified using Superdex 75 HR 26/60 column (GE Healthcare, Buckinghamshire, U.K.) and eluates were analyzed using SDS-PAGE for the presence of the desired protein product. The fractions containing the recombinant protein were combined, frozen using liquid nitrogen, and lyophilized again.
Except for Netoglitazone, which was custom synthesised by GVK BIO, all small molecules were purchased with a purity greater than 99%. Small molecules were first solubilized in 100% DMSO to a concentration of 5 mM, and then diluted in the peptide solution to reach a final DMSO concentration of maximum 1-3%. We verified that the addition of DMSO in the reaction mixture has no effect on Aβ42 aggregation.
Solutions of monomeric peptides were prepared by dissolving the lyophilized Aβ42 peptide in 6 M GuHCl. Monomeric forms were purified from potential oligomeric species and salt using a Superdex 75 10/300 GL column (GE Healthcare) at a flowrate of 0.5 mL/min, and were eluted in 20 mM sodium phosphate buffer, pH 8 supplemented with 200 μM EDTA and 0.02% NaN3. The centre of the peak was collected, and the peptide concentration was determined from the absorbance of the integrated peak area using ε280=1490 L mol^−1 cm^−1. The obtained monomer was diluted with buffer to the desired concentration and supplemented with 20 μM Thioflavin T (ThT) from a 1 mM stock. All samples were prepared in low binding Eppendorf tubes on ice using careful pipetting to avoid introduction of air bubbles. Each sample was then pipetted into multiple wells of a 96-well half-area, low-binding, clear bottom and PEG coating plate (Corning 3881), 80 μL per well. Aβ42 kinetics have been performed in the absence or the presence of Netoglitazone, Mitoglitazone, Rosiglotazone, Rivoglitazone, Pioglitazone, Ciglitazone, Englitazone, Darglitazone, Troglitazone and B alaglitazone.

GMC101 (Aβ worms) = assay: ROS production (ROS-Glo H2O2 assay) in worms; format: in vivo, C. elegans; conditions: 5 μM; administered at L4; D5 of adulthood
Description: ROS-Glo™ H2O2 cell kit assay was used (Promega, Fitchburg, Wis., USA) and adapted for C. elegans studies. The ROS-Glo™ H2O2 Assay is a bioluminescent assay that measures the level of H2O2, a reactive oxygen species (ROS), directly in cell culture or tissue or in defined enzyme reactions. A derivatized luciferin substrate is incubated with sample and reacts directly with H2O2 to generate a luciferin precursor. Worms treated with 5 μM Netoglitazone in 1% DMSO or 1% DMSO only were washed using M9 buffer out the NGM plates. The buffer was then changed 3 times to remove the excess bacteria. Worm pellets were then divided in three wells and 80 μl of worm pellet (around 200 worms/well) was incubated for 6 h at RT with 20 μl of a ROS Substrate Solution (Promega, Fitchburg, Wis., USA); mild shaking at 300 rpm was used to avoid worm sedimentation; afterwards, worms were incubated for ca. 20 min with 100 μl of the detection solution; luminescence was then measured with a Clariostar (BMG Labtech, Aylesbury, UK).

T1 sequence (P05067 671-713): as above

`O=C1NC(=O)C(Cc2ccc3cc(OCc4ccccc4F)ccc3c2)S1` (stereo not shown) [Netoglitazone] was tested, and the “delay of Aβ42 fibril formation in dot blot assay compared with ThT-based assay” value (Aβ42 fibrils) was “identical within experimental error”, the “effect on rate constants of primary (knk+) and secondary (k2k+) pathways” value (Aβ42 [1]) was “can affect both nucleation pathways” and the “delay in Aβ42 aggregation” value (Aβ42 [2]) was “substantial delay”. For the same molecule, the “levels of ROS production” value (GMC101 (Aβ worms)) was “significantly decreased the levels of oxidative species”.
